Where “and” joins values, the source holds several entries; their conditions need not be identical. Equal values may be shown once.
Conditions: Crystal, Calculated from knudsen effusion weight loss

[I][La]([I])[I] [lanthanum triiodide]
Conditions	vapor or sublimation pressure
827 K	4.7e-07 kPa
845 K	1.1e-06 kPa
862 K	2.5e-06 kPa
869 K	3.5e-06 kPa
875 K	4.7e-06 kPa
884 K	7.1e-06 kPa
905 K	1.7e-05 kPa
910 K	2.2e-05 kPa and 8.9e-06 kPa
921 K	1.6e-05 kPa and 3.4e-05 kPa
937 K	6.5e-05 kPa and 4e-05 kPa
943 K	8.1e-05 kPa and 5.4e-05 kPa
953 K	0.00012 kPa and 9.1e-05 kPa
962 K	0.00017 kPa and 0.00014 kPa
978 K	0.00031 kPa and 0.00033 kPa

From the NIST ThermoML archive (doi:10.1016/j.tca.2015.09.008)
